In US12686692B2, “KRas G12D inhibitors” (Mirati Therapeutics, Inc., priority 2020, dated 2026):

Experiments:
KRas G12D [1] = target: T1, KRas G12D (Homo sapiens, UniProt P01116, G12D); test: KRas G12D Surface Plasmon Resonance (SPR) Binding Assay; settings: Biacore T200, biotinylated Avidin-tagged KRAS protein on SA chip, 20 C, 1:1 binding model
Method: This Example illustrates that exemplary compounds of the present invention bind to KRas G12D as measured by surface plasmon resonance (SPR). Briefly, 1 L of 1.05×HBS-Mg buffer (262.5 mM BioUltra Hepes, pH 7.5, 157.5 mM NaCl, 105 mM MgCl2, 0.525 mM TCEP, […] Brij-35) was prepared and filter sterilized using a 0.22 μm bottle top filter. Approximately 50 mL of 1.05×HBS-Mg buffer was removed and saved for future dilutions. A 50 mL aliquot of DMSO (Sigma Aldrich DMSO Lot. #SHBK2079) was added and continued to stir for 10 minutes, creating the final 1.0×HBS-Mg buffer (250 mM BioUltra Hepes pH 7.5, 150 mM NaCl, 100 mM MgCl2, 0.5 mM TCEP, 0.03% Brij-35). Biacore T200 instrument was primed using 1.0×HBS-Mg buffer before docking a GE Streptavidin (SA) chip and then primed two additional times prior to beginning the immobilization step. All immobilized protein mixtures were created using 3-5 mg/mL Biotinylated Avidin-tagged KRAS protein using the following immobilization settings: SA chip type, 1 flow cells per cycle, 720 second contact time, and 5 μL/min flow rate. Normalization of the detector was also performed during the immobilization step using the GE BiaNormalize solution. All compounds were diluted to 10 mM in 100% DMSO prior to being diluted 20× in 1.05× buffer. Another 10× dilution was created using 1.0× buffer prior to performing a series of 3× dilutions to create a compound concentration curve using the following assay settings: 20 C analysis temperature, General Settings=10 Hz data collection rate and multi-detection; Assay Steps=all set to LMW kinetics; Cycle Types=LMW kinetics (60s contact time, 120s dissociation time, 100 μL/min flow rate, extra wash after injection with 50% DMSO, flow path 1,2,3,4); Flow path detection=2-1, 4-3). Data evaluation was performed using the Biacore T200 Evaluation software and data fit to 1:1 binding model.
Target sequence in this assay (P01116 1-188 isoform P01116-2 G12D): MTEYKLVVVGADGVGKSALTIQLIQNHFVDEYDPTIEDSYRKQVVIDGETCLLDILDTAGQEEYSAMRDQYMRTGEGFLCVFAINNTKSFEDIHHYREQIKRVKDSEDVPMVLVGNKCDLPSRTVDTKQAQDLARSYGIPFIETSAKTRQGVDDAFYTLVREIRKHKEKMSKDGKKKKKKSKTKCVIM

KRas G12D [2] = target: T1, KRas G12D; test: KRas G12D Binding Assay (TR-FRET displacement of labeled tracer); design: corresponding to amino acids 1:169, produced at Array BioPharma; biotin (protein is biotinylated); settings: TR-FRET displacement of Cy5 labelled tracer, biotinylated GDP-loaded KRAS G12D (aa 1:169), 60 minute incubation at 22° C.
How it was run: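 Biotinylated GDP-loaded human KRAS G12D (aa 1–169) incubated with Cy5 tracer, Eu-streptavidin and compound (2% DMSO final) in 50 mM HEPES pH 7.5, 5 mM MgCl2, 0.005% Tween-20, 1 mM DTT, 60 min at 22 °C. TR-FRET ratio converted to percent of control; IC50 at 50 POC from 4-parameter logistic fit.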
Target sequence in this assay (P01116 1-169 isoform P01116-2 G12D): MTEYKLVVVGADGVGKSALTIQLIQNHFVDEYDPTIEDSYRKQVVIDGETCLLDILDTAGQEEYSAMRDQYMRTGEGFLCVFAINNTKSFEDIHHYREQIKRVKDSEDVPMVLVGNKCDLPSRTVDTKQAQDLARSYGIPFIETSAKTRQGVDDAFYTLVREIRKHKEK

Row | Compound | Kd (KRas G12D [1]) | IC50 (KRas G12D [2])
1 | COc1nc2c(c(N3C[C@H]4CC[C@@H](C3)N4)n1)CCN(c1cccc3cccc(C)c13)C2 [Example 22, 4-((1R,5S)-3,8-diazabicyclo[3.2.1]octan-3-yl)-2-methoxy-7-(8-methylnaphthalen-1-yl)-5,6,7,8-tetrahydropyrido[3,4-d]pyrimidine] | 302 µM | 7.86 µM
2 | CN1CCC[C@H]1COc1nc2c(c(N3C[C@H]4CC[C@@H](C3)N4)n1)CCN(C1CC(O)c3ccccc31)C2 (stereo partly drawn) [Example 35, 3-(4-((1R,5S)-3,8-diazabicyclo[3.2.1]octan-3-yl)-2-(((S)-1-methylpyrrolidin-2-yl)methoxy)-5,8-dihydropyrido[3,4-d]pyrimidin-7(6H)-yl)-2,3-dihydro-1H-inden-1-ol] | 570 µM | > 10 µM
3 | COC1CC(N2CCc3c(nc(OC[C@@H]4CCCN4C)nc3N3C[C@H]4CC[C@@H](C3)N4)C2)c2ccccc21 (stereo partly drawn) [Example 36, 4-((1R,5S)-3,8-diazabicyclo[3.2.1]octan-3-yl)-7-(3-methoxy-2,3-dihydro-1H-inden-1-yl)-2-(((S)-1-methylpyrrolidin-2-yl)methoxy)-5,6,7,8-tetrahydropyrido[3,4-d]pyrimidine] | 24.3 µM | > 10 µM
4 | CN1CCC[C@H]1COc1nc2c(c(N3C[C@H]4CC[C@@H](C3)N4)n1)CC(=O)N(Cc1ccccc1)C2 [Example 53, 7-benzyl-4-((1R,5S)-3,8-diazabicyclo[3.2.1]octan-3-yl)-2-(((S)-1-methylpyrrolidin-2-yl)methoxy)-7,8-dihydropyrido[3,4-d]pyrimidin-6(5H)-one] | > 1000 µM | 5.26 µM
5 | CN1CCC[C@H]1COc1nc2c(c(N3C[C@H]4CC[C@@H](C3)N4)n1)CCN(c1cncc3ccccc13)C2 [Example 57, 4-((1R,5S)-3,8-diazabicyclo[3.2.1]octan-3-yl)-7-(isoquinolin-4-yl)-2-(((S)-1-methylpyrrolidin-2-yl)methoxy)-5,6,7,8-tetrahydropyrido[3,4-d]pyrimidine] | 98.5 µM | > 10 µM
6 | CN1CCC[C@H]1COc1nc2c(c(N3C[C@H]4CC[C@@H](C3)N4)n1)CCN(c1nc(N)nc3ccccc13)C2 [Example 59, 4-(4-((1R,5S)-3,8-diazabicyclo[3.2.1]octan-3-yl)-2-(((S)-1-methylpyrrolidin-2-yl)methoxy)-5,8-dihydropyrido[3,4-d]pyrimidin-7(6H)-yl)quinazolin-2-amine] | 598 µM | 7.5 µM
7 | Cc1c(O)cc(N2CCc3c(nc(OC[C@@H]4CCCN4C)nc3N3C[C@H]4CC[C@@H](C3)N4)C2)c2ccccc12 [Example 69, 4-(4-((1R,5S)-3,8-diazabicyclo[3.2.1]octan-3-yl)-2-(((S)-1-methylpyrrolidin-2-yl)methoxy)-5,8-dihydropyrido[3,4-d]pyrimidin-7(6H)-yl)-1-methylnaphthalen-2-ol] | 38.4 µM | > 10 µM
8 | CN1CCC[C@H]1COc1nc2c(c(N3C[C@H]4CC[C@@H](C3)N4)n1)CCN(c1ccc(Br)c3cccc(Cl)c13)C2 [Example 74, 4-((1R,5S)-3,8-diazabicyclo[3.2.1]octan-3-yl)-7-(4-bromo-8-chloronaphthalen-1-yl)-2-(((S)-1-methylpyrrolidin-2-yl)methoxy)-5,6,7,8-tetrahydropyrido[3,4-d]pyrimidine] | 41.6 µM | > 10 µM
9 | CN1CCC[C@H]1COc1nc2c(c(N3C[C@H]4CC[C@@H](C3)N4)n1)CCN(c1c(O)cccc1F)C2 [Example 77, 2-(4-((1R,5S)-3,8-diazabicyclo[3.2.1]octan-3-yl)-2-(((S)-1-methylpyrrolidin-2-yl)methoxy)-5,8-dihydropyrido[3,4-d]pyrimidin-7(6H)-yl)-3-fluorophenol] | 264 µM | > 10 µM
10 | CN1CCC[C@H]1COc1nc2c(c(N3C[C@H]4CC[C@@H](C3)N4)n1)CCN(c1c(O)ccc3ccccc13)C2 [Example 78, 1-(4-((1R,5S)-3,8-diazabicyclo[3.2.1]octan-3-yl)-2-(((S)-1-methylpyrrolidin-2-yl)methoxy)-5,8-dihydropyrido[3,4-d]pyrimidin-7(6H)-yl)naphthalen-2-ol] | 51.4 µM | > 10 µM
11 | CN1CCC[C@H]1COc1nc2c(c(N3C[C@H]4CC[C@@H](C3)N4)n1)CCN(c1cccc3cccc(CCCC#N)c13)C2 [Example 83, 4-(8-(4-((1R,5S)-3,8-diazabicyclo[3.2.1]octan-3-yl)-2-(((S)-1-methylpyrrolidin-2-yl)methoxy)-5,8-dihydropyrido[3,4-d]pyrimidin-7(6H)-yl)naphthalen-1-yl)butanenitrile] | 19.9 µM | 6.57 µM
12 | CN1CCC[C@H]1COc1nc2c(c(N3C[C@H]4CC[C@@H](C3)N4)n1)CCN(c1cccc3cccc(CCCCO)c13)C2 [Example 84, 4-(8-(4-((1R,5S)-3,8-diazabicyclo[3.2.1]octan-3-yl)-2-(((S)-1-methylpyrrolidin-2-yl)methoxy)-5,8-dihydropyrido[3,4-d]pyrimidin-7(6H)-yl)naphthalen-1-yl)butan-1-ol] | 8.71 µM | 3.69 µM
13 | O[C@@H]1C[C@@H]2CN(c3nc(OCCC(F)(F)F)nc4c3CCN(c3cccc5cccc(Cl)c35)C4)C[C@H]1N2 [Example 86, (1R,5R,6R)-3-(7-(8-chloronaphthalen-1-yl)-2-(3,3,3-trifluoropropoxy)-5,6,7,8-tetrahydropyrido[3,4-d]pyrimidin-4-yl)-3,8-diazabicyclo[3.2.1]octan-6-ol] | 33.2 µM | 2.9 µM

Compounds with a lower Kd (KRas G12D [1]), results first:

Row | Kd (KRas G12D [1]) | IC50 (KRas G12D [2]) | Compound
14 | 4.22 µM | 1.78 µM | CN1CCC[C@H]1COc1nc2c(c(N3C[C@H]4CC[C@@H](C3)N4)n1)CCN(c1cccc3c1CCCC3)C2 [Example 71, 4-((1R,5S)-3,8-diazabicyclo[3.2.1]octan-3-yl)-2-(((S)-1-methylpyrrolidin-2-yl)methoxy)-7-(5,6,7,8-tetrahydronaphthalen-1-yl)-5,6,7,8-tetrahydropyrido[3,4-d]pyrimidine]
15 | 3.16 µM | 1.1 µM | CN1CCC[C@H]1COc1nc2c(c(N3C[C@H]4CC[C@@H](C3)N4)n1)CCN(c1cccc3cccc(F)c13)C2 [Example 73, 4-((1R,5S)-3,8-diazabicyclo[3.2.1]octan-3-yl)-7-(8-fluoronaphthalen-1-yl)-2-(((S)-1-methylpyrrolidin-2-yl)methoxy)-5,6,7,8-tetrahydropyrido[3,4-d]pyrimidine]
16 | 2.1 µM | 1.12 µM | CN1CCC[C@H]1COc1nc2c(c(N3C[C@H]4CC[C@@H](C3)N4)n1)CCN(c1cccc3ccccc13)C2 [Example 70, 4-((1R,5S)-3,8-diazabicyclo[3.2.1]octan-3-yl)-2-(((S)-1-methylpyrrolidin-2-yl)methoxy)-7-(naphthalen-1-yl)-5,6,7,8-tetrahydropyrido[3,4-d]pyrimidine]
17 | 1.86 µM | 0.486 µM | CN1CCC[C@H]1COc1nc2c(c(N3C[C@H]4CC[C@@H](C3)N4)n1)CCN(c1cccc3cccc(CCCO)c13)C2 [Example 79, 3-(8-(4-((1R,5S)-3,8-diazabicyclo[3.2.1]octan-3-yl)-2-(((S)-1-methylpyrrolidin-2-yl)methoxy)-5,8-dihydropyrido[3,4-d]pyrimidin-7(6H)-yl)naphthalen-1-yl)propan-1-ol]
18 | 0.847 µM | 6.79 µM | CN1CCC[C@H]1COc1nc2c(c(N3C[C@H]4CC[C@@H](C3)N4)n1)CCN(c1c(F)c(O)c(F)c3ccccc13)C2 [Example 25, 4-(4-((1R,5S)-3,8-diazabicyclo[3.2.1]octan-3-yl)-2-(((S)-1-methylpyrrolidin-2-yl)methoxy)-5,8-dihydropyrido[3,4-d]pyrimidin-7(6H)-yl)-1,3-difluoronaphthalen-2-ol]
19 | 0.149 µM | 0.061 µM | CC1CCCc2cccc(N3CCc4c(nc(OC[C@@H]5CCCN5C)nc4N4C[C@H]5CC[C@@H](C4)N5)C3)c21 (stereo partly drawn) [Example 82, 4-((1R,5S)-3,8-diazabicyclo[3.2.1]octan-3-yl)-7-(8-methyl-5,6,7,8-tetrahydronaphthalen-1-yl)-2-(((S)-1-methylpyrrolidin-2-yl)methoxy)-5,6,7,8-tetrahydropyrido[3,4-d]pyrimidine]
